Laboratory results from ChEMBL document CHEMBL1201862, “PubChem BioAssay data set” (2004).
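Briefly, cells in 96-well plates were exposed to five compound concentrations for 48 h, and endpoints were estimated by linear interpolation. The concentration for 50% growth inhibition is given as GI50.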 Active and inactive are the calls of the source. No stated cut-off is given here; in the data, active = GI50 up to about 1.1 µM and inactive = higher.

Legend:
Assay in all cases: inhibition of tumour cell growth, NCI panel, 48 h
A549 = system: A549
BT-549 = system: BT-549
CAKI-1 = system: CAKI-1
EKVX = system: EKVX
HCC 2998 = system: HCC 2998
HCT-116 = system: HCT-116
HCT-15 = system: HCT-15
K562 = system: K562
MDA-MB-231 = system: MDA-MB-231
MOLT-4 = system: MOLT-4
Malme-3M = system: Malme-3M
NCI-H23 = system: NCI-H23
NCI-H522 = system: NCI-H522
OVCAR-5 = system: OVCAR-5
RPMI-8226 = system: RPMI-8226
SK-MEL-28 = system: SK-MEL-28
SNB-75 = system: SNB-75
U-251 = system: U-251
UACC-257 = system: UACC-257
UACC-62 = system: UACC-62

| Compound | GI50 (A549) | GI50 (BT-549) | GI50 (CAKI-1) | GI50 (EKVX) | GI50 (HCC 2998) | GI50 (HCT-116) | GI50 (HCT-15) [µM] | GI50 (K562) | GI50 (MDA-MB-231) | GI50 (MOLT-4) | GI50 (Malme-3M) | GI50 (NCI-H23) | GI50 (NCI-H522) | GI50 (OVCAR-5) | GI50 (RPMI-8226) | GI50 (SK-MEL-28) | GI50 (SNB-75) | GI50 (U-251) | GI50 (UACC-257) | GI50 (UACC-62) |
| --- | --- | --- | --- | --- | --- | --- | --- | --- | --- | --- | --- | --- | --- | --- | --- | --- | --- | --- | --- | --- |
| CN(C)c1ccc(C(=O)NCCCCCCC(=O)NO)cc1 | 0.514 µM (active) | 1.7 µM (inactive) | 0.465 µM (active) | 1.52 µM (inactive) | 0.348 µM (active) | 0.169 µM (active) | 1.27 | 0.337 µM (active) | 0.697 µM (active) | 0.241 µM (active) | 0.0948 µM (active) | 0.562 µM (active) | 0.11 µM (active) | 0.218 µM (active) | 0.195 µM (active) | 0.434 µM (active) | 0.251 µM (active) | 0.486 µM (active) | 0.237 µM (active) | 0.275 µM (active) |
| CO[C@H](c1ccccc1)[C@H](O)[C@](O)(c1ccccc1)P(=O)(OC)OC | > 100 µM (inactive) | > 100 µM (inactive) | > 100 µM (inactive) | > 100 µM (inactive) | > 100 µM (inactive) | > 100 µM (inactive) | > 100 | > 100 µM (inactive) | > 100 µM (inactive) | > 100 µM (inactive) | > 100 µM (inactive) | > 100 µM (inactive) | > 100 µM (inactive) | > 100 µM (inactive) | > 100 µM (inactive) | > 100 µM (inactive) | > 100 µM (inactive) | > 100 µM (inactive) | > 100 µM (inactive) | > 100 µM (inactive) |
| CCCCCCCCCCCCCCCC(=O)OC(COC(C)=O)CO[PH](=O)O (configuration not stated) | 19.5 µM (inactive) | > 100 µM (inactive) | 41.9 µM (inactive) | 49.3 µM (inactive) | 21.4 µM (inactive) | – | 24 | > 100 µM (inactive) | 21.7 µM (inactive) | 31.3 µM (inactive) | 34.8 µM (inactive) | – | 15.1 µM (inactive) | 16.1 µM (inactive) | 78.2 µM (inactive) | 35.2 µM (inactive) | 22.4 µM (inactive) | 21.6 µM (inactive) | 34 µM (inactive) | 37.3 µM (inactive) |
| Cc1cccc2c1C(=O)[C@@](C)([C@]1(C)Nc3cccc(C)c3C1=O)N2 | > 100 µM (inactive) | > 100 µM (inactive) | > 100 µM (inactive) | > 100 µM (inactive) | > 100 µM (inactive) | > 100 µM (inactive) | > 100 | > 100 µM (inactive) | > 100 µM (inactive) | > 100 µM (inactive) | > 100 µM (inactive) | > 100 µM (inactive) | > 100 µM (inactive) | > 100 µM (inactive) | 11 µM (inactive) | > 100 µM (inactive) | 30.4 µM (inactive) | > 100 µM (inactive) | > 100 µM (inactive) | > 100 µM (inactive) |
| CCC/C(Cl)=N\OC(=O)Nc1cccc(C(F)(F)F)c1 | 19.7 µM (inactive) | 10.6 µM (inactive) | 18.1 µM (inactive) | 16.6 µM (inactive) | 18.2 µM (inactive) | 18.2 µM (inactive) | 13.5 | 2.28 µM (inactive) | 17 µM (inactive) | 2.94 µM (inactive) | 13.2 µM (inactive) | 20.7 µM (inactive) | 1.96 µM (inactive) | 20.3 µM (inactive) | 4.61 µM (inactive) | 19.2 µM (inactive) | 10.4 µM (inactive) | 18.5 µM (inactive) | 17.5 µM (inactive) | 18.9 µM (inactive) |
| Cn1ccnc1CC(C)(O)c1ccccc1 (configuration not stated) | > 100 µM (inactive) | > 100 µM (inactive) | > 100 µM (inactive) | > 100 µM (inactive) | > 100 µM (inactive) | > 100 µM (inactive) | > 100 | > 100 µM (inactive) | > 100 µM (inactive) | – | > 100 µM (inactive) | > 100 µM (inactive) | > 100 µM (inactive) | > 100 µM (inactive) | > 100 µM (inactive) | > 100 µM (inactive) | > 100 µM (inactive) | > 100 µM (inactive) | > 100 µM (inactive) | > 100 µM (inactive) |
| CCCCn1c(CSc2ccc(Cl)cc2)c(C(=O)OCC)c2cc(OC)c(Br)cc21 | > 100 µM (inactive) | > 100 µM (inactive) | 31.5 µM (inactive) | > 100 µM (inactive) | > 100 µM (inactive) | > 100 µM (inactive) | > 100 | > 100 µM (inactive) | > 100 µM (inactive) | > 100 µM (inactive) | > 100 µM (inactive) | > 100 µM (inactive) | > 100 µM (inactive) | > 100 µM (inactive) | > 100 µM (inactive) | > 100 µM (inactive) | > 100 µM (inactive) | > 100 µM (inactive) | > 100 µM (inactive) | > 100 µM (inactive) |
| Cn1c(=O)cc(NCc2ccc(Cl)cc2)[nH]c1=O | > 100 µM (inactive) | 76.9 µM (inactive) | > 100 µM (inactive) | > 100 µM (inactive) | 99.5 µM (inactive) | 52.6 µM (inactive) | > 100 | > 100 µM (inactive) | 49.2 µM (inactive) | – | 73.3 µM (inactive) | > 100 µM (inactive) | 34.4 µM (inactive) | > 100 µM (inactive) | > 100 µM (inactive) | > 100 µM (inactive) | 24 µM (inactive) | 40.3 µM (inactive) | > 100 µM (inactive) | 30.8 µM (inactive) |
| Cc1ccc2c(n1)C(=O)C=CC2=O | 16.9 µM (inactive) | 16.5 µM (inactive) | 2.02 µM (inactive) | 7.03 µM (inactive) | 16.3 µM (inactive) | 1.97 µM (inactive) | 9.48 | 3.1 µM (inactive) | 4.72 µM (inactive) | 2.61 µM (inactive) | 5.79 µM (inactive) | 15.7 µM (inactive) | 1.91 µM (inactive) | 18.2 µM (inactive) | 2.59 µM (inactive) | 3.56 µM (inactive) | 19.4 µM (inactive) | 17.4 µM (inactive) | 7.35 µM (inactive) | 13.7 µM (inactive) |
| CN(C)CCNC(=O)C(C)(C)Oc1ccc(C(=O)c2ccc(Cl)cc2)cc1Cl | 9.18 µM (inactive) | 11.5 µM (inactive) | 13.1 µM (inactive) | 11.2 µM (inactive) | 5.21 µM (inactive) | 7.4 µM (inactive) | 3.3 | – | 10.9 µM (inactive) | 12 µM (inactive) | 5.01 µM (inactive) | 9.86 µM (inactive) | 15 µM (inactive) | 15.1 µM (inactive) | 3.94 µM (inactive) | 1.94 µM (inactive) | 11.5 µM (inactive) | 7.05 µM (inactive) | 2 µM (inactive) | 2.04 µM (inactive) |
| O=C(CN1CCN(c2ccccn2)CC1)N1CCCn2c1nc1ccccc1c2=O | > 100 µM (inactive) | > 100 µM (inactive) | > 100 µM (inactive) | > 100 µM (inactive) | > 100 µM (inactive) | > 100 µM (inactive) | > 100 | > 100 µM (inactive) | > 100 µM (inactive) | > 100 µM (inactive) | > 100 µM (inactive) | > 100 µM (inactive) | > 100 µM (inactive) | > 100 µM (inactive) | > 100 µM (inactive) | – | > 100 µM (inactive) | > 100 µM (inactive) | > 100 µM (inactive) | > 100 µM (inactive) |
| COC(OC)C1OCC(n2cc(F)c(=O)[nH]c2=O)C1O (configuration not stated) | > 100 µM (inactive) | > 100 µM (inactive) | > 100 µM (inactive) | > 100 µM (inactive) | > 100 µM (inactive) | > 100 µM (inactive) | > 100 | > 100 µM (inactive) | > 100 µM (inactive) | > 100 µM (inactive) | > 100 µM (inactive) | > 100 µM (inactive) | > 100 µM (inactive) | > 100 µM (inactive) | > 100 µM (inactive) | > 100 µM (inactive) | > 100 µM (inactive) | > 100 µM (inactive) | > 100 µM (inactive) | > 100 µM (inactive) |
| CCN(CC)c1c(-c2c(OC(C)C)c(=O)c2=O)c(=O)n2ccsc2c1OC(C)=O | – | > 100 µM (inactive) | > 100 µM (inactive) | 71.9 µM (inactive) | > 100 µM (inactive) | > 100 µM (inactive) | > 100 | > 100 µM (inactive) | > 100 µM (inactive) | > 100 µM (inactive) | 39.7 µM (inactive) | > 100 µM (inactive) | 17.5 µM (inactive) | > 100 µM (inactive) | 34.8 µM (inactive) | > 100 µM (inactive) | 5.13 µM (inactive) | > 100 µM (inactive) | > 100 µM (inactive) | > 100 µM (inactive) |
| N=C(N)C(/N=N\c1ccccc1)C(N)=O (configuration not stated) | > 100 µM (inactive) | > 100 µM (inactive) | 64.7 µM (inactive) | 95.7 µM (inactive) | > 100 µM (inactive) | > 100 µM (inactive) | 83.8 | 35.9 µM (inactive) | > 100 µM (inactive) | > 100 µM (inactive) | > 100 µM (inactive) | > 100 µM (inactive) | > 100 µM (inactive) | > 100 µM (inactive) | > 100 µM (inactive) | > 100 µM (inactive) | > 100 µM (inactive) | > 100 µM (inactive) | > 100 µM (inactive) | 43.3 µM (inactive) |
| OCCCCCNc1nc(O)c2[nH]cnc2n1 | > 10 µM (inactive) | > 100 µM (inactive) | > 100 µM (inactive) | > 100 µM (inactive) | > 100 µM (inactive) | > 100 µM (inactive) | > 100 | > 100 µM (inactive) | > 100 µM (inactive) | > 100 µM (inactive) | > 100 µM (inactive) | > 100 µM (inactive) | > 100 µM (inactive) | > 100 µM (inactive) | > 100 µM (inactive) | – | > 100 µM (inactive) | > 100 µM (inactive) | > 100 µM (inactive) | > 100 µM (inactive) |
